One assay concerns the target T1, AuroraA-TPX2 (Homo sapiens, UniProt O14965).
T1 construct: 20 µL of AuroraA-TPX2 KD GST; GST
T1 sequence (O14965 133-383 limits assumed): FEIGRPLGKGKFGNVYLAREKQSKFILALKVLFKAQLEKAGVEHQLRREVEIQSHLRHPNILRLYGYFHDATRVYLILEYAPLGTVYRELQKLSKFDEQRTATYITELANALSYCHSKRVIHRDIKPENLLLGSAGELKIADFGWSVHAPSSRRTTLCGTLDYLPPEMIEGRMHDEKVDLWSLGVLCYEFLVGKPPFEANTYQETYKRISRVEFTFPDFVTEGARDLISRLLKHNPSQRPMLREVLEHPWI
T1 sequence (Q9ULW0 1-43 partner limits assumed): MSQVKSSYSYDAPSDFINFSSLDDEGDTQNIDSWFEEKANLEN
The assay can be described thus: AuroraA-TPX2 Homogeneous Time Resolved Fluorescent (HTRF) kinase assay. Format: biochemical. The gist of the method:
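Aurora-A/TPX2 phosphorylates biotinylated PLK peptide (about 1 µM) with ATP for about 120 min in 60 mM HEPES pH 7.5, 10 mM MgCl2, 2 mM DTT. EDTA quench, overnight equilibration with Eu-anti-phosphoPLK antibody and SA-APC; HTRF read at 615/655 nm after 320 nm excitation.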

The next assay concerns the target T2, AuroraB (Homo sapiens, UniProt Q96GD4).
T2 construct: 20 µL of AuroraB FL His; His
Put plainly: AuroraB Homogeneous Time Resolved Fluorescent (HTRF) kinase assay. In kind it is biochemical. The method in brief:
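Full-length His-tagged AuroraB (400 pM) phosphorylates 0.1 µM biotinylated Histone H3 with 23 µM ATP (Km(app)) in HEPES pH 7.5 with Mg/Mn, about 90 min. EDTA-quenched; Eu-anti-phosphoHistoneH3 and SA-APC HTRF, 655/615 nm ratio as phosphorylation.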

Setting [1] is: average, given as class symbols, read-out: AurA/TP X2_ IC50_IP (Avg).
[2] abbreviates: average, given as class symbols, read-out: AurB_ _IC50_IP (Avg).
Where [3] appears, read: average, given as numbers, unit inferred, read-out: AurA/TP X2_ IC50_IP (Avg).
Setting [4] is: average, given as numbers, unit inferred, read-out: AurB_ _IC50_IP (Avg).

Read-outs that look alike come from different tables or passages of the source.

For 24 compounds, IC50 results are on record in patent EP1984353B1, “AURORA KINASE MODULATORS AND METHOD OF USE” (Amgen, Inc, priority 2006, dated 2007).

T2 sequence (Q96GD4 whole entry): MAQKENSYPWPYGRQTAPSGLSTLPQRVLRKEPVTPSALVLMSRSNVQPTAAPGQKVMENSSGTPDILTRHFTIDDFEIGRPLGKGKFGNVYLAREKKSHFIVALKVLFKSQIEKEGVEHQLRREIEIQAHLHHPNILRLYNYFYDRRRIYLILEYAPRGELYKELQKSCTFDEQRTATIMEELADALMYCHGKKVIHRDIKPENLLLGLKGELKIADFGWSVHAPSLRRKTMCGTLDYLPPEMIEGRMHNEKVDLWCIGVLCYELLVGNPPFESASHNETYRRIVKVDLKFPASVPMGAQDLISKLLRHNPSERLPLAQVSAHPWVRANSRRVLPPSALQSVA

On to `Nc1nccc(-c2cccnc2Oc2ccc(Nc3nnc(-c4cc(F)ccc4O)c4ccccc34)cc2)n1` [compound 386, 2-(4-((4-((3-(2-amino-4-pyrimidinyl)-2-pyridinyl)oxy)phenyl)amino)-1-phthalazinyl)-4-fluorophenol], for which the IC50 at AuroraA-TPX2 (setting [1]) and on AuroraB (setting [2]) was not above 100 nM each time.
Turning to `CN(C)CCCOc1cccc(-c2nnc(Nc3ccc(Oc4ncccc4-c4ccnc(N)n4)nc3)c3ccccc23)c1` [compound 388, N-(6-((3-(2-amino-4-pyrimidinyl)-2-pyridinyl)oxy)-3-pyridinyl)4-(3-((3-(dimethylamino)propyl)oxy)phenyl)-1-phthalazinamine], the IC50 on AuroraA-TPX2 (setting [1]) was 100 to 500 nM; at AuroraB (setting [2]), not above 100 nM.
For the compound `Nc1nccc(-c2cccnc2Oc2ccc(Nc3nnc(-c4ccccn4)c4ccccc34)cc2)n1` [compound 356, N-(4-((3-(2-amino-4-pyrimidinyl)-2-pyridinyl)oxy)phenyl)-4-(2-pyridinyl)-1-phthalazinamine], the IC50 on AuroraA-TPX2 (setting [1]) and at AuroraB (setting [2]) was not above 100 nM in each case.
With `COc1ccc(F)cc1-c1nnc(Nc2ccc(Oc3ncccc3-c3ccnc(N)n3)cc2)c2ccccc12` [compound 380, N-(4-((3-(2-amino-4-pyrimidinyl)-2-pyridinyl)oxy)phenyl)-4-(5-fluoro-2-(methyloxy)phenyl)-1-phthalazinamine], the IC50 on AuroraA-TPX2 (setting [1]) and at AuroraB (setting [2]) was not above 100 nM each time.
Regarding `Cc1cccc(-c2nnc(Nc3ccc(Oc4ncccc4-c4ccnc(NCCCN5CCNCC5)n4)cc3)c3ccccc23)n1` [compound 277, 4-(6-methyl-2-pyridinyl)-N-(4-((3-(2-((3-(1-piperazinyl)propyl)amino)-4-pyrimidinyl)-2-pyridinyl)oxy)phenyl)-1-phthalazinamine], the IC50 is 126 nM on AuroraA-TPX2 (setting [3]) and 2.7 nM at AuroraB (setting [4]).
Taken in the same sequence, the figures for `C[C@@H](O)c1ccc(-c2nnc(Nc3ccc(Oc4ncccc4-c4ccnc(N)n4)cc3)c3ccccc23)cc1` [compound 256, (1R)-1-(4-(4-((4-((3-(2-amino-4-pyrimidinyl)-2-pyridinyl)oxy)phenyl)amino)-1-phthalazinyl)phenyl)ethanol] were 149 nM and 1.8 nM.
As to `Nc1nccc(-c2cccnc2Oc2ccc(Nc3nnc(N4CCN5CCCC5C4)c4ccccc34)cn2)n1` (stereo not drawn) [compound 397, N-(6-((3-(2-amino-4-pyrimidinyl)-2-pyridinyl)oxy)-3-pyridinyl)-4-(hexahydropyrrolo[1,2-a]pyrazin-2(1H)-yl)-1-phthalazinamine], the IC50 on AuroraA-TPX2 (setting [1]) and at AuroraB (setting [2]) was not above 100 nM each time.
On to `O=C(O)CCNc1nccc(-c2cccnc2Oc2ccc(Nc3nnc(-c4ccccc4)c4ccccc34)cc2)n1` [compound 327, N-(4-(2-((4-((4-phenyl-1-phthalazinyl)amino)phenyl)oxy)-3-pyridinyl)-2-pyrimidinyl)-beta-alanine], for which the IC50 at AuroraA-TPX2 (setting [1]) lay within 100 to 500 nM; on AuroraB (setting [2]) it was 500 to 2500 nM.
Turning to `CNc1nccc(-c2cccnc2Oc2ccc(Nc3nnc(-c4cc(Cl)cs4)c4ccccc34)cc2)n1` [Example 245, 4-(4-chlorothiophen-2-yl)-N-(4-(3-(2-(methylamino)pyrimidin-4-yl)pyridin-2-yloxy)phenyl)phthalazin-1-amine], the IC50 at AuroraA-TPX2 (read-out: average activity in the Aurora kinase A HTRF assay) and at AuroraB (read-out: average activity in the Aurora kinase B HTRF assay) was not above 1000 nM in each case.
For “N-(4-((3-(2-amino-4-pyrimidinyl)-2-pyridinyl)oxy)phenyl)-4-ethyl-6-phenyl-3-pyridazinamine [compound 435]”, the IC50 on AuroraA-TPX2 (setting [1]) and at AuroraB (setting [2]) was not above 100 nM each time.
With `c1ccc(-c2nnc(Nc3ccc(Oc4ncccc4-c4ccnc5c4CCN5)cc3)c3ccccc23)cc1` [compound 287, N-(4-((3-(2,3-dihydro-1H-pyrrolo[2,3-b]pyridin-4-yl)-2-pyridinyl)oxy)phenyl)-4-phenyl-1-phthalazinamine], the IC50 on AuroraA-TPX2 (setting [3]) stood at 83.3 nM; at AuroraB (setting [4]), 10.3 nM.
Consider `Nc1nccc(-c2cccnc2Oc2ccc(Nc3nnc(N4CCN5CCCCC5C4)c4ccccc34)cc2)n1` (stereo not drawn) [compound 406, N-(4-((3-(2-amino-4-pyrimidinyl)-2-pyridinyl)oxy)phenyl)-4-(octahydro-2H-pyrido[1,2-a]pyrazin-2-yl)-1-phthalazinamine], for which the IC50 at AuroraA-TPX2 (setting [1]) and at AuroraB (setting [2]) was not above 100 nM each time.
On to `Cc1cccc(-c2nnc(Nc3ccc(Oc4ncccc4-c4ccnc(NCCCN5CCCCC5)n4)cc3)c3ccccc23)n1` [compound 276, 4-(6-methyl-2-pyridinyl)-N-(4-((3-(2-((3-(1-piperidinyl)propyl)amino)-4-pyrimidinyl)-2-pyridinyl)oxy)phenyl)-1-phthalazinamine], for which the IC50 on AuroraA-TPX2 (setting [1]) was 100 to 500 nM; on AuroraB (setting [2]) it was not above 100 nM.
The corresponding values for `CCc1cc(-c2ccccc2)nnc1Nc1ccc(Oc2ncccc2-c2ccnc(NCCCN3CCCCC3)n2)nc1` [compound 450, 4-ethyl-6-phenyl-N-(6-((3-(2-((3-(1-piperidinyl)propyl)amino)-4-pyrimidinyl)-2-pyridinyl)oxy)-3-pyridinyl)-3-pyridazinamine] are 500 to 2500 nM and not above 100 nM.
For the compound `Cc1cc(-c2nnc(Nc3ccc(Oc4ncccc4-c4ccnc(N)n4)cc3)c3ccccc23)sn1` [compound 251, N-(4-((3-(2-amino-4-pyrimidinyl)-2-pyridinyl)oxy)phenyl)-4-(3-methyl-5-isothiazolyl)-1-phthalazinamine], the IC50 on AuroraA-TPX2 (setting [3]) came to 16 nM; on AuroraB (setting [4]), 0.4 nM.
As to `Fc1cnc(NCCCN2CCCCC2)nc1-c1cccnc1Oc1ccc(Nc2nnc(-c3ccccc3)c3ccccc23)cc1` [compound 403, N-(4-((3-(5-fluoro-2-((3-(1-piperidinyl)propyl)amino)-4-pyrimidinyl)-2-pyridinyl)oxy)phenyl)-4-phenyl-1-phthalazinamine], the IC50 on AuroraA-TPX2 (setting [1]) and on AuroraB (setting [2]) was not above 100 nM each time.
As for `CCOc1ccc(-c2nnc(Nc3ccc(Oc4ncccc4-c4ccnc(N)n4)cc3)c3ccccc23)cc1` [compound 321, N-(4-((3-(2-amino-4-pyrimidinyl)-2-pyridinyl)oxy)phenyl)-4-(4-(ethyloxy)phenyl)-1-phthalazinamine], the IC50 on AuroraA-TPX2 (setting [1]) and at AuroraB (setting [2]) was not above 100 nM in each case.
In the case of `COc1cccc(-c2nnc(Nc3ccc(Oc4ncccc4-c4ccnc(NCCCN5CCN(C)CC5)n4)cc3)c3ccccc23)n1` [compound 410, 4-(6-(methyloxy)-2-pyridinyl)-N-(4-((3-(2-((3-(4-methyl-1-piperazinyl)propyl)amino)-4-pyrimidinyl)-2-pyridinyl)oxy)phenyl)-1-phthalazinamine], the IC50 on AuroraA-TPX2 (setting [1]) and at AuroraB (setting [2]) was not above 100 nM each time.
Regarding `Nc1nccc(-c2cccnc2Oc2ccc(Nc3nnc(-c4cccc(CCO)c4)c4ccccc34)cc2)n1` [compound 355, 2-(3-(4-((4-((3-(2-amino-4-pyrimidinyl)-2-pyridinyl)oxy)phenyl)amino)-1-phthalazinyl)phenyl)ethanol], the IC50 on AuroraA-TPX2 (setting [1]) and on AuroraB (setting [2]) was not above 100 nM each time.
As to `C[C@H](O)c1cccc(-c2nnc(Nc3ccc(Oc4ncccc4-c4ccnc(N)n4)cc3)c3ccccc23)c1` [compound 360, (1S)-1-(3-(4-((4-((3-(2-amino-4-pyrimidinyl)-2-pyridinyl)oxy)phenyl)amino)-1-phthalazinyl)phenyl)ethanol], the IC50 on AuroraA-TPX2 (setting [1]) and on AuroraB (setting [2]) was not above 100 nM throughout.
`C[C@H](O)c1cccc(-c2nnc(Nc3ccc(Oc4ncccc4-c4ccnc(N)n4)nc3)c3ccccc23)c1` [compound 369, (1S)-1-(3-(4-((6-((3-(2-amino-4-pyrimidinyl)-2-pyridinyl)oxy)-3-pyridinyl)amino)-1-phthalazinyl)phenyl)ethanol]: the IC50 on AuroraA-TPX2 (setting [1]) and on AuroraB (setting [2]) was not above 100 nM in each case.
On to `CC(C)c1nnc(Nc2ccc(Oc3ncccc3-c3ccnc(N)n3)nc2)c2ccccc12` [compound 269, N-(6-((3-(2-amino-4-pyrimidinyl)-2-pyridinyl)oxy)-3-pyridinyl)-4-(1-methylethyl)-1-phthalazinamine], for which the IC50 at AuroraA-TPX2 (setting [1]) and on AuroraB (setting [2]) was not above 100 nM in each case.
Take `COc1ccc(-c2nnc(Nc3ccc(Oc4ncccc4-c4ccnc(N)n4)cc3)c3ccccc23)cc1` [compound 320, N-(4-((3-(2-amino-4-pyrimidinyl)-2-pyridinyl)oxy)phenyl)-4-(4-(methyloxy)phenyl)-1-phthalazinamine]: the IC50 at AuroraA-TPX2 (setting [1]) and at AuroraB (setting [2]) was not above 100 nM in each case.
For the compound `Nc1nccc(-c2cccnc2Oc2ccc(Nc3nnc(-c4cccc(CO)c4)c4ccccc34)cn2)n1` [compound 375, (3-(4-((6-((3-(2-amino-4-pyrimidinyl)-2-pyridinyl)oxy)-3-pyridinyl)amino)-1-phthalazinyl)phenyl)methanol], the IC50 at AuroraA-TPX2 (setting [1]) and on AuroraB (setting [2]) was not above 100 nM throughout.
